Measurements reported in patent US20180140602A1, “COMBINATION OF CHIMERIC ANTIGEN RECEPTOR THERAPY AND AMINO PYRIMIDINE DERIVATIVES” (Novartis AG, priority 2015, published 2018).

Target: T1, BTK (Homo sapiens, UniProt Q06187)
T1 construct: Whole blood was collected with written consent from healthy volunteers by venipuncture into sodium heparin vials; endogenous in cells; host or cells: B cells in heparinised whole blood of healthy human volunteers
Assay: Inhibition of BTK activity in blood (anti-IgM/IL-4 B cell activation, CD69);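 further: heparinized blood from healthy donors, read by flow cytometry, with inhibition derived from the percentage of CD69-positive cells within the CD19-positive lymphocyte gate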
Type: cell-based
Details: human whole blood, anti-IgM/IL-4, CD69 on CD19+ cells, 20 hours

T1 sequence (Q06187 whole entry): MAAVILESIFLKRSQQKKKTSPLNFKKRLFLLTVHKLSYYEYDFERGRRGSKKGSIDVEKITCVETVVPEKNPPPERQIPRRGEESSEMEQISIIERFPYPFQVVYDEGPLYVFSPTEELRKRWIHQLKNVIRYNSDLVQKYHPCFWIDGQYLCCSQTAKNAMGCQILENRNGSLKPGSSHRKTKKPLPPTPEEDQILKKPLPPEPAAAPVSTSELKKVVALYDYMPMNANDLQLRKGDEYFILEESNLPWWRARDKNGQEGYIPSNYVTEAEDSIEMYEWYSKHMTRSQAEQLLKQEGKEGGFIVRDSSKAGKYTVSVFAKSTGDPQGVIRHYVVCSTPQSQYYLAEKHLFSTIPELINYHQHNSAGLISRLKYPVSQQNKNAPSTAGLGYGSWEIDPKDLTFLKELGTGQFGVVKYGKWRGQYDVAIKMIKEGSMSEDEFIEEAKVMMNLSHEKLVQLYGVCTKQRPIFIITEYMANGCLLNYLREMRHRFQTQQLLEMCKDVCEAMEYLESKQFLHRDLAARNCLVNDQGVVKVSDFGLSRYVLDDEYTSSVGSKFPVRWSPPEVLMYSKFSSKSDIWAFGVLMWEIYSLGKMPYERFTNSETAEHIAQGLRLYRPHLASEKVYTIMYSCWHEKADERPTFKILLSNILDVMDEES

SMILES | IC50 [nM]
CC#CC(=O)N[C@@H](C)COc1c(N)ncnc1-c1cc(F)cc(NC(=O)c2ccc(C3CC3)cc2F)c1C [Example 18] | 419
C=CC(=O)N1C[C@@H](OC)C[C@H]1COc1c(N)ncnc1-c1cc(F)cc(NC(=O)c2ccc(C3CC3)cc2F)c1C [Example 29, N-(3-(5-(((2S,4S)-1-Acryloyl-4-methoxypyrrolidin-2-yl)methoxy)-6-aminopyrimidin-4-yl)-5-fluoro-2-methylphenyl)-4-cyclopropyl-2-fluorobenzamide] | 134
C=CC(=O)N1CC[C@H](OC)[C@H]1COc1c(N)ncnc1-c1cc(F)cc(NC(=O)c2ccc(C3CC3)cc2F)c1C [Example 38, N-(3-(5-(((2R,3S)-1-Acryloyl-3-methoxypyrrolidin-2-yl)methoxy)-6-aminopyrimidin-4-yl)-5-fluoro-2-methylphenyl)-4-cyclopropyl-2-fluorobenzamide] | 70
C=CC(=O)N(C)[C@@H](C)COc1c(N)ncnc1-c1cc(F)cc(NC(=O)c2ccc(C3CC3)cc2F)c1C [Example 19, (S)—N-(3-(6-Amino-5-(2-(N-methylacrylamido)propoxy)pyrimidin-4-yl)-5-fluoro-2-methylphenyl)-4-cyclopropyl-2-fluorobenzamide] | 136
C=CC(=O)N[C@@H](C)COc1c(N)ncnc1-c1cc(F)cc(NC(=O)c2ccc(C3CC3)cc2F)c1C [Example 17, (S)—N-(3-(5-(2-Acrylamidopropoxy)-6-aminopyrimidin-4-yl)-5-fluoro-2-methylphenyl)-4-cyclopropyl-2-fluorobenzamide] | 246
CC#CC(=O)N1C[C@@H](OC)C[C@H]1COc1c(N)ncnc1-c1cc(F)cc(NC(=O)c2ccc(C3CC3)cc2F)c1C [Example 30, N-(3-(6-Amino-5-(((2S,4S)-1-(but-2-ynoyl)-4-methoxypyrrolidin-2-yl)methoxy)pyrimidin-4-yl)-5-fluoro-2-methylphenyl)-4-cyclopropyl-2-fluorobenzamide] | 222
C/C=C/C(=O)N1CC(Oc2c(N)ncnc2-c2cc(F)cc(NC(=O)c3ccc(C4CC4)cc3F)c2C)C1 [Example 2, (E)-N-(3-(6-Amino-5-((1-(but-2-enoyl)azetidin-3-yl)oxy)pyrimidin-4-yl)-5-fluoro-2-methylphenyl)-4-cyclopropyl-2-fluorobenzamide] | 1110
C=CC(=O)N1C[C@H](OC)C[C@H]1COc1c(N)ncnc1-c1cc(F)cc(NC(=O)c2ccc(C3CC3)cc2F)c1C [Example 26, N-(3-(5-(((2S,4R)-1-Acryloyl-4-methoxypyrrolidin-2-yl)methoxy)-6-aminopyrimidin-4-yl)-5-fluoro-2-methylphenyl)-4-cyclopropyl-2-fluorobenzamide] | 51
C=CC(=O)N(C)CCOc1c(N)ncnc1-c1cc(F)cc(N2CCc3cc(C4CC4)ccc3C2=O)c1CO [Example 25, N-(2-((4-Amino-6-(3-(6-cyclopropyl-1-oxo-3,4-dihydroisoquinolin-2(1H)-yl)-5-fluoro-2-(hydroxymethyl)phenyl)pyrimidin-5-yl)oxy)ethyl)-N-methylacrylamide] | 65
CC#CC(=O)N1CC(Oc2c(N)ncnc2-c2cc(F)cc(NC(=O)c3ccc(C4CC4)cc3F)c2C)C1 [Example 4, N-(3-(6-Amino-5-((1-(but-2-ynoyl)azetidin-3-yl)oxy)pyrimidin-4-yl)-5-fluoro-2-methylphenyl)-4-cyclopropyl-2-fluorobenzamide] | 376
C#CC(=O)N1CC(Oc2c(N)ncnc2-c2cc(F)cc(NC(=O)c3ccc(C4CC4)cc3F)c2C)C1 [Example 3, N-(3-(6-Amino-5-((1-propioloylazetidin-3-yl)oxy)pyrimidin-4-yl)-5-fluoro-2-methylphenyl)-4-cyclopropyl-2-fluorobenzamide] | 124
C=CC(=O)N1CC[C@H]1COc1c(N)ncnc1-c1cc(F)cc(N2CCc3cc(C4CC4)ccc3C2=O)c1CO [Example 35, (S)-2-(3-(5-((1-Acryloylazetidin-2-yl)methoxy)-6-aminopyrimidin-4-yl)-5-fluoro-2-(hydroxymethyl)phenyl)-6-cyclopropyl-3,4-dihydroisoquinolin-1(2H)-one] | 72

Further compounds by falling IC50, results first:

IC50 [nM] | SMILES
968 | C=CC(=O)N1CCC[C@@H](COc2c(N)ncnc2-c2cc(F)cc(NC(=O)c3ccc(C4CC4)cc3F)c2C)C1 [Example 37, (R)—N-(3-(5-((1-Acryloylpiperidin-3-yl)methoxy)-6-aminopyrimidin-4-yl)-5-fluoro-2-methylphenyl)-4-cyclopropyl-2-fluorobenzamide]
558 | C=CC(=O)NC1(COc2c(N)ncnc2-c2cc(F)cc(NC(=O)c3ccc(C4CC4)cc3F)c2C)CC1 [Example 16, N-(3-(5-((1-Acrylamidocyclopropyl)methoxy)-6-aminopyrimidin-4-yl)-5-fluoro-2-methylphenyl)-4-cyclopropyl-2-fluorobenzamide]
459 | C=CC(=O)N(C)CCOc1c(N)ncnc1-c1cccc(-n2ccc3cc(C4CC4)cc(F)c3c2=O)c1 [Example 12, N-(2-((4-Amino-6-(3-(6-cyclopropyl-8-fluoro-1-oxoisoquinolin-2(1H)-yl)phenyl)pyrimidin-5-yl)oxy)ethyl)-N-methylacrylamide]
330 | CC#CC(=O)N(C)[C@@H](C)COc1c(N)ncnc1-c1cc(F)cc(NC(=O)c2ccc(C3CC3)cc2F)c1C [Example 20]
323 | Cc1c(NC(=O)c2ccc(C3CC3)cc2F)cc(F)cc1-c1ncnc(N)c1OCCN(C)C(=O)C1CO1 (stereo not shown) [Example 11, N-(2-((4-Amino-6-(3-(4-cyclopropyl-2-fluorobenzamido)-5-fluoro-2-methylphenyl)pyrimidin-5-yl)oxy)ethyl)-N-methyloxirane-2-carboxamide]
240 | COC/C=C/C(=O)N(C)CCOc1c(N)ncnc1-c1cc(F)cc(NC(=O)c2ccc(C3CC3)cc2F)c1C [Example 9, (E)-N-(3-(6-Amino-5-(2-(4-methoxy-N-methylbut-2-enamido)ethoxy)pyrimidin-4-yl)-5-fluoro-2-methylphenyl)-4-cyclopropyl-2-fluorobenzamide]
208 | C#CC(=O)N1CC[C@H]1COc1c(N)ncnc1-c1cc(F)cc(NC(=O)c2ccc(C3CC3)cc2F)c1C [Example 34]
176 | C=CC(=O)N1C[C@H](C#N)C[C@H]1COc1c(N)ncnc1-c1cc(F)cc(NC(=O)c2ccc(C3CC3)cc2F)c1C [Example 39, N-(3-(5-(((2S,4R)-1-Acryloyl-4-cyanopyrrolidin-2-yl)methoxy)-6-aminopyrimidin-4-yl)-5-fluoro-2-methylphenyl)-4-cyclopropyl-2-fluorobenzamide]
80 | C=CC(=O)N1C[C@@H](C#N)C[C@H]1COc1c(N)ncnc1-c1cc(F)cc(NC(=O)c2ccc(C3CC3)cc2F)c1C [Example 40, N-(3-(5-(((2S,4S)-1-Acryloyl-4-cyanopyrrolidin-2-yl)methoxy)-6-aminopyrimidin-4-yl)-5-fluoro-2-methylphenyl)-4-cyclopropyl-2-fluorobenzamide]
76 | CC#CC(=O)N1C[C@H](OC)C[C@H]1COc1c(N)ncnc1-c1cc(F)cc(NC(=O)c2ccc(C3CC3)cc2F)c1C [Example 27, N-(3-(6-Amino-5-(((2S,4R)-1-(but-2-ynoyl)-4-methoxypyrrolidin-2-yl)methoxy)pyrimidin-4-yl)-5-fluoro-2-methylphenyl)-4-cyclopropyl-2-fluorobenzamide]
57 | CC#CC(=O)N1CCC[C@H]1COc1c(N)ncnc1-c1cc(F)cc(NC(=O)c2ccc(C3CC3)cc2F)c1C [Example 23]
55 | CC#CC(=O)N1C[C@H](F)C[C@H]1COc1c(N)ncnc1-c1cc(F)cc(NC(=O)c2ccc(C3CC3)cc2F)c1C [Example 32, N-(3-(6-Amino-5-(((2S,4R)-1-(but-2-ynoyl)-4-fluoropyrrolidin-2-yl)methoxy)pyrimidin-4-yl)-5-fluoro-2-methylphenyl)-4-cyclopropyl-2-fluorobenzamide]
33 | C=CC(=O)N1C[C@H](OC)C[C@H]1COc1c(N)ncnc1-c1cc(F)cc(N2CCc3cc(C4CC4)ccc3C2=O)c1CO [Example 28, 2-(3-(5-(((2S,4R)-1-Acryloyl-4-methoxypyrrolidin-2-yl)methoxy)-6-aminopyrimidin-4-yl)-5-fluoro-2-(hydroxymethyl)phenyl)-6-cyclopropyl-3,4-dihydroisoquinolin-1(2H)-one]
32 | C=CC(=O)N1CCC[C@H]1COc1c(N)ncnc1-c1cc(F)cc(N2CCc3cc(C4CC4)ccc3C2=O)c1CO [Example 24, (S)-2-(3-(5-((1-Acryloylpyrrolidin-2-yl)methoxy)-6-aminopyrimidin-4-yl)-5-fluoro-2-(hydroxymethyl)phenyl)-6-cyclopropyl-3,4-dihydroisoquinolin-1(2H)-one]
29 | C=CC(=O)N(CCF)CCOc1c(N)ncnc1-c1cc(F)cc(NC(=O)c2ccc(C3CC3)cc2F)c1C [Example 15, N-(3-(6-Amino-5-(2-(N-(2-fluoroethyl)acrylamido)ethoxy)pyrimidin-4-yl)-5-fluoro-2-methylphenyl)-4-cyclopropyl-2-fluorobenzamide]
25 | C=CC(=O)N1C[C@H](F)C[C@H]1COc1c(N)ncnc1-c1cc(F)cc(NC(=O)c2ccc(C3CC3)cc2F)c1C [Example 31, N-(3-(5-(((2S,4R)-1-Acryloyl-4-fluoropyrrolidin-2-yl)methoxy)-6-aminopyrimidin-4-yl)-5-fluoro-2-methylphenyl)-4-cyclopropyl-2-fluorobenzamide]
